Three sequences from paper PMC13588620, “Linear antibody epitope prediction using AlphaFold2” (eLife, 2026) can be followed below.

The test system of the experiment is mBG17 binding to SARS-CoV-2 nucleocapsid protein. In words: Peptide competition ELISA with overlapping nucleocapsid peptides. The following applies: 40 μg (approximately 30 nMol) peptide incubated with 40 μl mBG17 for 1 h at room temperature, absorbance at 450 nm, n=3, percentage of binding from no-peptide control. The arrangement: species or system mouse. Background: An ELISA detects its analyte on a solid surface through an enzyme-linked reagent.

On to DDFSKQLQQS [a.a. 401–410], for which the “competition of mBG17 binding to the SARS-CoV-2 nucleocapsid protein in the ELISA” value (from here on “competition of mBG17 binding”) is “almost complete competition”.

For “PAADLDDFSK [a.a. 296–405, synthetic 10 a.a. peptide of SARS-CoV-2 nucleocapsid protein overlapping a.a; 401–410 at the N-terminus]”, the “competition of mBG17 binding” value is on record as “neither was able to compete”.

For the sequence “QLQQSMSSAD [a.a. 406–415, synthetic 10 a.a. peptide of SARS-CoV-2 nucleocapsid protein]”, the “competition of mBG17 binding” value is on record as “neither was able to compete”.
